{
  "source": "patent US11028061B2",
  "about": "“Modulators of myocyte lipid accumulation and insulin resistance and methods of use thereof” (Sanford Burnham Prebys Medical Discovery Institute, priority 2015, dated 2021)",
  "test_system": "human skeletal myotubes",
  "test": "Cellular glucose uptake assay ([3H]-2-deoxyglucose)",
  "type": "cell-based",
  "details": "10 μM SBI-477, 24 hours",
  "method": "After differentiation, primary human skeletal myotubes were incubated with the indicated concentration of SBI-477 for 24 hours and then treated with insulin (100 nM) for 30 minutes. Cells were washed in phosphate-buffered saline (PBS) three times at room temperature and then incubated with Krebs-Ringer HEPES buffer (140 mM NaCl, 5 mM KCl, 1 mM CaCl2, 2.5 mM MgSO4, 2.5 mM, NaH2PO4, 20 mM HEPES and 0.1% bovine serum albumin) containing [3H]-2-deoxyglucose (1.0 μCi/mL) for 15 min. Glucose uptake was terminated by washing five times with ice-cold PBS. The cells were then solubilized with 0.5N sodium hydroxide (NaOH). The amount of [3H]-2-deoxyglucose taken up was measured by liquid scintillation analyzer (PerkinElmer) and normalized to total protein.",
  "data": [
    {"smiles": "COc1ccc(-c2csc(NC(=O)c3ccc(OCC(=O)N4CCOCC4)c(OC)c3)n2)cc1", "note": "[Cpd. 7, 3-methoxy-N-(4-(4-methoxyphenyl)thiazol-2-yl)-4-(2-morpholino-2-oxoethoxy)benzamide]", "values": [
      {"measurement": "Increase of basal and insulin stimulated glucose uptake", "result": "approximately 84%"}
    ]}
  ]
}
